Assay results taken from ChEMBL document CHEMBL1131260, “Studies on selectin blockers. 6. Discovery of homologous fucose sugar unit necessary for E-selectin binding” (J Med Chem, 1998).

biological target: T1, E-selectin (Homo sapiens, UniProt P16581); test: In vitro inhibitory activity against Selectin E-sialyl Lewis X (sLex) binding
T1 sequence (P16581 whole entry): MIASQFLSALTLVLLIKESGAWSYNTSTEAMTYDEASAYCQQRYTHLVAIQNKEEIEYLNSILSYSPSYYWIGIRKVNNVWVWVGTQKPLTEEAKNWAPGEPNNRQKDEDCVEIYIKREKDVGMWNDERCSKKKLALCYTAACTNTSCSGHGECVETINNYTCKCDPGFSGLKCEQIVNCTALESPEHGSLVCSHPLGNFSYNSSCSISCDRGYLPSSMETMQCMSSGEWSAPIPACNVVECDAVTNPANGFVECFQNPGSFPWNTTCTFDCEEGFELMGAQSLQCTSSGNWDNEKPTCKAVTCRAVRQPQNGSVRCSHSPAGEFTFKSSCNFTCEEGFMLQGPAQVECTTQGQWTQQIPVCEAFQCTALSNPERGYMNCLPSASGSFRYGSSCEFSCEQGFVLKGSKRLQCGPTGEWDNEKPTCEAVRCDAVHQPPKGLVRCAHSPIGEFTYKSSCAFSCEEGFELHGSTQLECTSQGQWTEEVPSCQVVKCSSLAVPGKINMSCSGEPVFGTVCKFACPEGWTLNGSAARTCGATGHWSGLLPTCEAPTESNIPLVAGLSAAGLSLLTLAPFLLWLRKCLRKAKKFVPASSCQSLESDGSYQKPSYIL

Row | Compound | IC50 [µM]
1 | CCCCCCCCCCCCCCC(CCCCCCCCCCCCCC)C(=O)N[C@@H](CO[C@@H]1O[C@H](C(C)O)[C@@H](O)[C@@H]1O)C(=O)N[C@H](CCC(=O)O)C(=O)NC (some centres undefined) | 3.1
2 | CCCCCCCCCCCCCCC(CCCCCCCCCCCCCC)C(=O)N[C@H](CO[C@@H]1O[C@H](C(C)O)[C@@H](O)[C@@H]1O)C(=O)N[C@@H](CCC(=O)O)C(=O)NC.N=C(N)NCCC[C@H](N)C=O (some centres undefined) | 4.3
3 | CCCCCCCCCCCCCCC(CCCCCCCCCCCCCC)C(=O)NC(COC1O[C@@H](O)[C@@H](O)[C@H](O)[C@@H]1O)C(=O)N[C@H](CCC(=O)O)C(=O)NC (single isomer, unassigned) | 13
4 | CCCCCCCCCCCCCCC(CCCCCCCCCCCCCC)C(=O)NC(CO[C@@H]1O[C@@H](O)[C@@H](O)[C@H](O)[C@@H]1O)C(=O)N[C@@H](CCC(=O)O)C(=O)NC (single isomer, unassigned) | 1.5
